Source: patent publication US7625894B2, “Pyrrolo[2,3-d]Pyrimidines as Protein Tyrosine Kinase Inhibitors” (Novartis AG, priority 2004, dated 2009)

| Structure (SMILES) | melting point [°C] |
| --- | --- |
| COCCN(CCOC)c1ncnc2[nH]c(-c3ccc(C(C)(C)O)cc3)cc12 [Example 31, 2-(4-{4-[Bis-(2-methoxy-ethyl)-amino]-7H-pyrrolo[2,3-d]pyrimidin-6-yl}-phenyl)-propan-2-ol] | 165 to 167 |
| CN1CCN(C(=O)c2ccc(-c3cc4c(N5CCN(C)CC5)ncnc4[nH]3)cc2)CC1 [Example 8, (4-Methyl-piperazin-1-yl)-{4-[4-(4-methyl-piperazin-1-yl)-7H-pyrrolo[2,3-d]pyrimidin-6-yl]-phenyl}-methanone] | 243 to 245 |
| CCCN(C)c1ncnc2[nH]c(-c3ccc(CN4CCN(C)CC4)cc3)cc12 [Example 1, methyl-{6-[4-(4-methyl-piperazin-1-ylmethyl)phenyl]-7H-pyrrolo[2,3-d]pyrimidin-4-yl}-propylamine] | 220 to 221 |
| CCCCOCc1ccc(-c2cc3c(N(C)C)ncnc3[nH]2)cc1 [Example 26, [6-(4-Butoxymethyl-phenyl)-7H-pyrrolo[2,3-d]pyrimidin-4-yl]-dimethyl-amine] | 186 to 188 |
| CCC(O)(CC)c1ccc(-c2cc3c(NCCCN4CCOCC4)ncnc3[nH]2)cc1 [Example 30] | 175 to 177 |
| CNC(=O)c1ccc(-c2cc3c(NC)ncnc3[nH]2)cc1 [Example 21, N-Methyl-4-(4-methylamino-7H-pyrrolo[2,3-d]pyrimidin-6-yl)-benzamide] | > 300 |
| CCC(O)(CC)c1ccc(-c2cc3c(N(CCOC)CCOC)ncnc3[nH]2)cc1 [Example 32, 3-(4-{4-[Bis-(2-methoxy-ethyl)-amino]-7H-pyrrolo[2,3-d]pyrimidin-6-yl}-phenyl)-pentan-3-ol] | 83 to 85 |
| CN(C)CCNc1ncnc2[nH]c(-c3ccc(C(=O)N4CCN(C)CC4)cc3)cc12 [Example 22, {4-[4-(2-Dimethylamino-ethylamino)-7H-pyrrolo[2,3-d]pyrimidin-6-yl]-phenyl}-(4-methyl-piperazin-1-yl)-methanone] | 268 to 270 |
